Values quoted from earlier work, collected in patent publication US20140140997A1, “Methods of Treating Retroviral Infections in Felines” (CytoDyn Inc., priority 2011, published 2014).

Tests used:
CD11a binding to ICAM-1 = conditions: Weitz-Schmidt et al. 2004; Welzenbach et al. 2002
LFA-1 = conditions: Wang et al. 2009; Almog 2003

Row | SMILES | prevention of CD11a binding to ICAM-1 (CD11a binding to ICAM-1) | inhibition of LFA-1 activation (LFA-1)
1 | CC[C@H](C)C(=O)O[C@H]1C[C@@H](C)C=C2C=C[C@H](C)[C@H](CC[C@@H]3C[C@H](CC(=O)NC)N(Cc4ccc(O)c(OC)c4)C(=O)O3)[C@H]21 [LFA878] | preventing the ability of CD11a to bind to ICAM-1 | 
2 | CC[C@H](C)C(=O)O[C@H]1C[C@@H](C)C=C2C=C[C@H](C)[C@H](CC[C@@H]3C[C@@H](O)CC(=O)O3)[C@H]21 [Lovastatin, (1S,3R,7S,8S,8aR)-8-{2-[(2R,4R)-4-hydroxy-6-oxooxan-2-yl]ethyl}-3,7-dimethyl-1,2,3,7,8,8a-hexahydronaphthalen-1-yl (2S)-2-methylbutanoate] |  | inhibit LFA-1 activation
3 | O=C(NCc1cccc(O)c1)c1cc(Cl)c(C(=O)N[C@@H](CNC(=O)c2cc(O)cc(O)c2)C(=O)O)c(Cl)c1 [XVA143] | preventing the ability of CD11a to bind to ICAM-1 | 
4 | CCC(C)(C)C(=O)O[C@H]1C[C@@H](C)C=C2C=C[C@H](C)[C@H](CC[C@@H]3C[C@@H](O)CC(=O)O3)[C@H]21 [simvastatin, (1S,3R,7S,8S,8aR)-8-(2-((2R,4R)-4-hydroxy-6-oxotetrahydro-2H-pyran-2-yl)ethyl)-3,7-dimethyl-1,2,3,7,8,8a-hexahydronaphthalen-1-yl 2,2-dimethylbutanoate] |  | inhibit LFA-1 activation
